Data taken from patent US20250281480A1, “PHARMACEUTICAL DRY POWDER INHALATION FORMULATION” (Bayer Aktiengesellschaft, priority 2021, published 2025).
“And” between values parts separate entries of the source, which are not always exact repeats. Equal values may be shown once.

Tested on: anesthetized PAH minipigs
Experiment: PAH minipig, intratracheal application of dry powder formulations and of different hydrates (PAP, BP)
Format: in vivo, Göttingen Minipigs
Conditions: for efficacy with regard to PAP reduction and systemic BP reduction: micronized hydrates; for PAP(mean) / BP (mean): per animal; for % changes vs. baseline on PAP: intratracheal application
Experimental: Healthy Göttingen Minipigs® Ellegaard (Ellegaard, Denmark) of both sexes and having a weight of 2-6 kg were used. The animals were sedated by i.m. administration of about 25 mg/kg ketamine and about 10 mg/kg azaperone. Anaesthesia was initiated by i.v. administration of about 2 mg/kg ketamine and about 0.3 mg/kg midazolam. Maintenance of anaesthesia was by i.v. administration of about 7.5-30 mg/kg/h ketamine and about 1-4 mg/kg/h midazolam (rate of infusion 1-4 ml/kg/h) and about 150 μg/kg/h pancuronium bromide (for example Pancuronium-Actavis). After intubation, the animals were ventilated by the ventilator at a constant respiratory volume (10-12 ml/kg, 35 breaths/min; Avea®, Viasys Healthcare, USA, or Engström Carestation, GE Healthcare, Freiburg, Germany) such that an end-tidal CO2 concentration of about 5% was achieved. Ventilation was performed with room air, enriched with about 40% oxygen (normoxia). For the measurement of the haemodynamic parameters such as pulmonary arterial pressure (PAP), blood pressure (BP) and heart rate (HR), catheters were inserted into the carotid artery to measure the blood pressure, and a Swan-Ganz® catheter was introduced in a flow-directed manner via the jugular vein into the pulmonary artery. The haemodynamic signals were recorded and evaluated by means of pressure transducers (Combitransducer, B. Braun, Melsungen, Germany)/amplifiers and Ponemah® as data acquisition software.
About 0.3-0.75 μg/kg/min of 9,11-didesoxy-9α,11α-epoxymethanoprostaglandine F2α (U-44069; Sigma, cat. no. D0400, or Cayman Chemical Company, cat. no. 16440), dissolved in physiological saline, were infused to achieve an increase of the mean pulmonary arterial pressure to values of over 25 mmHg.
After characterization of the effects of comparative example 11 after nebulization of compound solutions, in a further step the effects of crystalline forms of comparative example 11, e.g. sesquihydrate, e.g. example 6e on PAP and BP after inhaled application of different dry powder lactose formulations (table 52) were studied in anesthetized PAH minipigs.
As reference pure Lactose vehicle was applied in the beginning of each experiment.

[1] = % vs. prevalues, 375 μg/kg i.t., time 60, each animal
[2] = % vs. prevalues, 375 μg/kg i.t., time 70, each animal
[3] = 375 μg/kg i.t., time 0, Sesquihydrate
[4] = 375 μg/kg i.t., time −10, Sesquihydrate

`O.O=C(O)c1ccc(CCN(CCc2ccccc2OCc2ccc(-c3ccc(C(F)(F)F)cc3)cc2Cl)[C@H]2CCCc3nc(C(=O)O)ccc32)cc1.O=C(O)c1ccc(CCN(CCc2ccccc2OCc2ccc(-c3ccc(C(F)(F)F)cc3)cc2Cl)[C@H]2CCCc3nc(C(=O)O)ccc32)cc1` [Example 6a, (5S)—{[2-(4-Carboxyphenyl)ethyl][2-(2-{[3-chloro-4′-(trifluoromethyl)biphenyl-4-yl]methoxy}phenyl)-ethyl]amino}-5,6,7,8-tetrahydroquinoline-2-carboxylic Acid Semihydrate] was tested, and the “efficacy with regard to PAP reduction and systemic BP reduction” value (375 μg/kg i.t.) was “comparable efficacy”, the “PAP(mean)” value (375 μg/kg i.t., time 170) was 24.0 mmHg and 32.4 mmHg and 29.9 mmHg and the “BP (mean)” value (375 μg/kg i.t., time 180) was 94 mmHg. For the same compound, the “PAP(mean)” value (375 μg/kg i.t., time 180) was 23.7 mmHg, the “BP (mean)” value (375 μg/kg i.t., time 190) was 94 mmHg and 93 mmHg and the “PAP(mean)” value (375 μg/kg i.t., time 190) was 24.4 mmHg and 32.4 mmHg and 29.2 mmHg. For the same compound, the “PAP(mean)” value (375 μg/kg i.t., time 200) was 24.8 mmHg and 32.4 mmHg and 29.4 mmHg, the “BP (mean)” value (375 μg/kg i.t., time 210) was 91 mmHg and the “PAP(mean)” value (375 μg/kg i.t., time 210) was 24.8 mmHg and 29.2 mmHg. The “PAP(mean)” value (375 μg/kg i.t., time 220) was 24.7 mmHg and 29.1 mmHg, the “PAP(mean)” value (375 μg/kg i.t., time 230) was 24.0 mmHg and the “BP (mean)” value (375 μg/kg i.t., time 240) was 77 mmHg. The “PAP(mean)” value (375 μg/kg i.t., time 240) was 24.1 mmHg and 28.1 mmHg, the “BP (mean)” value (375 μg/kg i.t., time 250) was 76 mmHg and the “PAP(mean)” value (375 μg/kg i.t., time 250) was 24.2 mmHg and 28.1 mmHg. The “BP (mean)” value (375 μg/kg i.t., time 260) was 76 mmHg, the “PAP(mean)” value (375 μg/kg i.t., time 260) was 24.1 mmHg and 30.6 mmHg and 28.1 mmHg and the “BP (mean)” value (375 μg/kg i.t., time 270) was 76 mmHg. For the same compound, the “PAP(mean)” value (375 μg/kg i.t., time 270) was 24.4 mmHg and 30.6 mmHg and 27.8 mmHg, the “BP (mean)” value (375 μg/kg i.t., time 280) was 75 mmHg and the “PAP(mean)” value (375 μg/kg i.t., time 280) was 24.3 mmHg and 28.0 mmHg. For the same compound, the “BP (mean)” value (375 μg/kg i.t., time 290) was 75 mmHg, the “PAP(mean)” value (375 μg/kg i.t., time 290) was 24.1 mmHg and 27.6 mmHg and the “BP (mean)” value (375 μg/kg i.t., time 300) was 77 mmHg. For the same compound, the “PAP(mean)” value (375 μg/kg i.t., time 300) was 23.7 mmHg and 30.5 mmHg and 27.7 mmHg, the BP [1] was 100.6% and 99.7% and 97.2% and the PAP [1] was 100.7% and 99.4% and 99.2%. It also gave a BP [2] of 102.6% and a PAP [2] of 94.7%.

In the case of `O.O.O.O=C(O)c1ccc(CCN(CCc2ccccc2OCc2ccc(-c3ccc(C(F)(F)F)cc3)cc2Cl)[C@H]2CCCc3nc(C(=O)O)ccc32)cc1.O=C(O)c1ccc(CCN(CCc2ccccc2OCc2ccc(-c3ccc(C(F)(F)F)cc3)cc2Cl)[C@H]2CCCc3nc(C(=O)O)ccc32)cc1` [Example 6e, (5S)—{[2-(4-Carboxyphenyl)ethyl][2-(2-{[3-chloro-4′-(trifluoromethyl)biphenyl-4-yl]methoxy}phenyl)-ethyl]amino}-5,6,7,8-tetrahydroquinoline-2-carboxylic Acid Sesquihydrate], the “efficacy with regard to PAP reduction and systemic BP reduction” value (375 μg/kg i.t.) was “comparable efficacy”, the “BP (mean)” value [3] was 104 mmHg and the “PAP(mean)” value [3] was 41.9 mmHg. The “BP (mean)” value [4] was 107 mmHg, the “PAP(mean)” value [4] was 36.4 mmHg and 37.5 mmHg and the “% changes vs. baseline on PAP” value (time 80 (baseline = 100), each animal) was 100.0%. For the same compound, the “% changes vs. baseline on PAP” value (time 90, each animal, Sesquihydrate) was 98.9% and 103.6% and 99.8%, the “% changes vs. baseline on PAP” value (time 100, each animal, Sesquihydrate) was 99.5% and 101.4% and 97.3% and the “% changes vs. baseline on PAP” value (time 110, each animal, Sesquihydrate) was 89.3% and 98.7% and 86.8%. The “% changes vs. baseline on PAP” value (time 120, each animal, Sesquihydrate) was 84.0% and 95.6% and 75.7%, the “% changes vs. baseline on PAP” value (time 130, each animal, Sesquihydrate) was 78.9% and 93.7% and 70.2% and the “% changes vs. baseline on PAP” value (time 140, each animal, Sesquihydrate) was 75.2% and 91.8% and 67.5%. The “% changes vs. baseline on PAP” value (time 150, each animal, Sesquihydrate) was 74.0% and 76.0% and 65.4%, the “% changes vs. baseline on PAP” value (time 160, each animal, Sesquihydrate) was 71.0% and 79.5% and 65.9% and the “% changes vs. baseline on PAP” value (time 170, each animal, Sesquihydrate) was 68.5% and 74.3% and 61.5%. The “% changes vs. baseline on PAP” value (time 180, each animal, Sesquihydrate) was 63.2% and 80.8% and 62.0%, the “% changes vs. baseline on PAP” value (time 190, each animal, Sesquihydrate) was 61.5% and 80.8% and 58.6% and the “% changes vs. baseline on PAP” value (time 200, each animal, Sesquihydrate) was 62.3% and 80.3% and 60.2%. For the same compound, the “% changes vs. baseline on PAP” value (time 210, each animal, Sesquihydrate) was 61.0% and 80.7% and 59.4%, the “% changes vs. baseline on PAP” value (time 220, each animal, Sesquihydrate) was 59.5% and 86.3% and 57.8% and the “% changes vs. baseline on PAP” value (time 230, each animal, Sesquihydrate) was 58.6% and 82.6% and 57.8%. For the same compound, the “% changes vs. baseline on PAP” value (time 240, each animal, Sesquihydrate) was 59.3% and 81.5% and 57.6%, the “% changes vs. baseline on PAP” value (time 250, each animal, Sesquihydrate) was 59.3% and 82.2% and 56.1% and the “% changes vs. baseline on PAP” value (time 260, each animal, Sesquihydrate) was 58.8% and 82.7% and 57.6%. The “% changes vs. baseline on PAP” value (time 270, each animal, Sesquihydrate) was 59.9% and 78.3% and 55.4%, the “% changes vs. baseline on PAP” value (time 280, each animal, Sesquihydrate) was 58.4% and 78.3% and 55.9% and the “% changes vs. baseline on PAP” value (time 290, each animal, Sesquihydrate) was 57.4% and 79.6% and 53.9%. The “% changes vs. baseline on PAP” value (time 300, each animal, Sesquihydrate) was 60.1% and 78.7% and 54.5%, the “% changes vs. baseline on PAP” value (time 310, each animal, Sesquihydrate) was 58.4% and 77.6% and 53.7% and the “% changes vs. baseline on PAP” value (time 320, each animal, Sesquihydrate) was 61.8% and 76.3% and 55.1%. The “% changes vs. baseline on PAP” value (time 330, each animal, Sesquihydrate) was 61.3% and 74.8% and 53.0%, the PAP (time 20 min, lactose vehicle first, test powder 1.5 mg/4 kg i.t. @90 min, per animal (n = 3), Sesquihydrate) was 42.0 mmHg and 37.5 mmHg and the BP (time 30 min, lactose vehicle first, test powder 1.5 mg/4 kg i.t. @90 min, per animal (n = 3)) was 104 mmHg. The PAP (time 30 min, lactose vehicle first, test powder 1.5 mg/4 kg i.t. @90 min, per animal (n = 3), Sesquihydrate) was 41.9 mmHg and 37.1 mmHg and 37.5 mmHg, the PAP (time 40 min, lactose vehicle first, test powder 1.5 mg/4 kg i.t. @90 min, per animal (n = 3), Sesquihydrate) was 42.0 mmHg and 37.3 mmHg and 38.6 mmHg and the PAP (time 50 min, lactose vehicle first, test powder 1.5 mg/4 kg i.t. @90 min, per animal (n = 3), Sesquihydrate) was 41.4 mmHg and 37.4 mmHg and 39.8 mmHg. For the same compound, the PAP (time 60 min, lactose vehicle first, test powder 1.5 mg/4 kg i.t. @90 min, per animal (n = 3), Sesquihydrate) was 41.4 mmHg and 36.8 mmHg and 41.2 mmHg, the PAP (time 70 min, lactose vehicle first, test powder 1.5 mg/4 kg i.t. @90 min, per animal (n = 3), Sesquihydrate) was 41.0 mmHg and 37.4 mmHg and 41.3 mmHg and the PAP (time 80 min, lactose vehicle first, test powder 1.5 mg/4 kg i.t. @90 min, per animal (n = 3), Sesquihydrate) was 40.9 mmHg and 38.1 mmHg and 40.8 mmHg. The BP (time 90 min, lactose vehicle first, test powder 1.5 mg/4 kg i.t. @90 min, per animal (n = 3)) was 102 mmHg and the PAP (time 90 min, lactose vehicle first, test powder 1.5 mg/4 kg i.t. @90 min, per animal (n = 3), Sesquihydrate) was 40.4 mmHg and 39.5 mmHg.
